Test results taken from paper PMC11581214, “Compound 4f, a novel brain-penetrant reversible monoacylglycerol inhibitor, ameliorates neuroinflammation, neuronal cell loss, and cognitive impairment in mice with kainic acid-induced neurodegeneration” (PLOS ONE, 2024).

What was measured:
[1] = target: T1, serotonin (5-hydroxytryptamine) 2B (Homo sapiens, UniProt P41595); test: off-target panel of radioligand binding and functional assays (Eurofins), single concentration […]
T1 construct: gene HTR2B

monoamine oxidase-B = target: T2, monoamine oxidase-B (Homo sapiens, UniProt P27338); test: off-target panel enzyme assay (Eurofins), single concentration […]; type: biochemical
T2 construct: gene MAOB
T2 sequence (P27338 2-520): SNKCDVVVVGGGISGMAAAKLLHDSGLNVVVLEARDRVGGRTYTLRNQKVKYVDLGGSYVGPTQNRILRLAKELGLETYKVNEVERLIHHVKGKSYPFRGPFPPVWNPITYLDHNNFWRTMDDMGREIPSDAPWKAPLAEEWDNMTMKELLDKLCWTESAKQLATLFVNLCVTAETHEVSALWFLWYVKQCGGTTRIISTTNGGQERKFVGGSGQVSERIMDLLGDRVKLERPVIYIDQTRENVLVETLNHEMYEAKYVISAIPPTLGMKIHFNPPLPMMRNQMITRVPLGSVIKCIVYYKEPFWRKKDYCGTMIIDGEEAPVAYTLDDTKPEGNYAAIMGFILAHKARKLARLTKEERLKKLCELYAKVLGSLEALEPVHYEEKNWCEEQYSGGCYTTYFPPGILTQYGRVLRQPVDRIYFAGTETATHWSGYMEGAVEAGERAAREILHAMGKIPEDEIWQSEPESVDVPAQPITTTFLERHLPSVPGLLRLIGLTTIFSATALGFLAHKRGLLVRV

[2] = target: T3, monoacylglycerol lipase (MAGL) (Mus musculus, UniProt O35678); test: in vivo brain target occupancy by displacement of MAGL tracer T-211 (LC-MS/MS); brain 2-AG increase and AA decrease; type: cell-based
T3 construct: gene Mgll
T3 sequence (O35678 1-303): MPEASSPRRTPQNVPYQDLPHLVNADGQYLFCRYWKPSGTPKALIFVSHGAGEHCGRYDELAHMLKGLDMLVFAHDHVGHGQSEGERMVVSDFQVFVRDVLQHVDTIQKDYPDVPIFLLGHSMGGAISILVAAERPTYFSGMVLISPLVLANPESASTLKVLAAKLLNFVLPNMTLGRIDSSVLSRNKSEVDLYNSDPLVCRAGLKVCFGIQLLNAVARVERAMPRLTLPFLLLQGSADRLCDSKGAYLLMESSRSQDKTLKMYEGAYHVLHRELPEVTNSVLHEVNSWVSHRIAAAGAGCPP

T1 sequence (P41595 whole entry): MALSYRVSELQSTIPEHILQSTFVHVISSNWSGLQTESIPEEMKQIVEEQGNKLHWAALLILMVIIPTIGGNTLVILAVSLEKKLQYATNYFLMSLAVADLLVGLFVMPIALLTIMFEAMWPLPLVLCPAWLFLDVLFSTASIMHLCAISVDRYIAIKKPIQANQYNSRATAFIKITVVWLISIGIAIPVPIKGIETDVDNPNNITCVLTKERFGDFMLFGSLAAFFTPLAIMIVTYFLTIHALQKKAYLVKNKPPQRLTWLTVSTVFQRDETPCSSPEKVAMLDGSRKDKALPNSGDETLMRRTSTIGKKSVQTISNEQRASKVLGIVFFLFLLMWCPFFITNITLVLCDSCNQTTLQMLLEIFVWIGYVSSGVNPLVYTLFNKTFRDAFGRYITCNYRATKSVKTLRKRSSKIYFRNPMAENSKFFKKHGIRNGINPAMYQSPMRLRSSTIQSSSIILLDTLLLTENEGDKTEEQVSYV

Cc1ccc(COC2CN(C(=O)[C@H]3C[C@]4(COC(=O)N4)C3)C2)cc1Cl [4f]
inhibition at 10 µM [1]: 81%
inhibition at 10 µM (monoamine oxidase-B): < 50%
receptor occupancy at 1 mg/kg [2]: > 99%
